The text below walks through data of patent US20190175534A1, “PHARMACEUTICAL COMPOSITIONS COMPRISING DGLA AND USE OF SAME” (DS Biopharma Limited, priority 2016, published 2019).

In data set [1] the test system is patients with moderate to severe atopic dermatitis. As to the kind of experiment: Phase II study of oral DS107G: safety. To be noted: oral 2 g once daily 8 weeks. Type of data set: in vivo, human. An excerpt: Subjects visited the clinic on 6 occasions: at screening, baseline, week 2, week 4, week 8 (end of treatment/early termination) and week 10 (follow-up). All subjects exited the study at the week 10 visit. The primary efficacy variable was the proportion of patients achieving an IGA of 0 (clear) or 1 (almost clear), and a decrease of at least 2 points in IGA at week 8. Secondary efficacy variables included: IGA at other visits, pruritus (obtained from the SCORAD visual analog scale), EASI, BSA, POEM, DLQI, SCORAD and TEWL (for selected sites only). Safety was assessed through adverse events, physical examination, vital signs and safety laboratory tests (including pregnancy tests for women of childbearing potential), Pharmacokinetic samples were obtained at Baseline (Day 0), week 4 and week 8 visits in order to measure total and free DGLA plasma trough levels. Separate plasma samples were retained for later analysis of total fatty acid profile and interleukin profile.
Laboratory tests were performed at screening, Day 0, Week 4 and Week 8. If Week 8 results indicated a clinically significant change from baseline, laboratory tests were also performed at Week 10. […]
Efficacy was evaluated on the basis of the ITT population and analyses were performed based on the randomized treatment and not on the treatment received. […]

For data set [2] the test system is unchanged. The data set can be described thus: Phase II study of oral DS107G: eosinophil concentrations and responders by ethnicity. The class given is in vivo, human. To be noted: for Patients classified as Responders: IGA 0 or 1 at Week 8 with 2-point decrease. As to the method: The primary endpoint can be translated as a responder analysis where a subject is classified as Responder if he/she achieves an IGA score of 0 (clear) or 1 (almost clear) at Week 8, considering a 2-point decrease from baseline. The comparison between groups for the primary endpoint was done using a Cochran-Mantel-Haenszel test, with site included as a stratification factor. A supportive analysis was performed using a Fisher's exact test. The primary efficacy analysis was done using observed values and a supportive analysis was conducted using the last observation carried forward (LOCF) approach. The analyses was done using the ITT population and served as the primary analysis, while the analysis of the primary endpoint using the PP population was used as a sensitivity analysis.
A surprising discovery was observed when the data was further interrogated.
Eosinophils are a type of white blood cell that play an important role in the body's response to allergic reactions, asthma, and infection with parasites. Eosinophils usually account for less than 7% of the circulating white blood cells (100 to 500 eosinophils per microliter of blood). These cells have a role in the protective immunity against certain parasites but also contribute to the inflammation that occurs in allergic disorders.
FIG. 30A-B. In particular, 56% of DS107-treated African America patients were classified as Responders, versus only 7% of Caucasian patients. FIG. 31A-B. As discussed in detail above, a subject is classified as a Responder if he/she achieves an IGA score of 0 (clear) or 1 (almost clear) at Week 8, considering a 2-point decrease from baseline. FIG. 32 depicts the same data for eosinophil concentrations in all Responders in the total population (FIG. 32A) and for DS107 treated patients (FIG. 32B) and placebo treated patients (FIG. 32C). […] FIG. 33A-C. […] FIGS. 34A-C and FIGS. 35A-C.

Details of data set [3]: species or system human. The following applies: in vivo. As to the method:
A single-center, double-blind, randomized, placebo-controlled, two part Phase one study was performed in healthy male and female subjects aged 18 to 45 years inclusive. The primary objective of this study was to assess the safety and plasma pharmacokinetics (PK) of orally administered single doses and orally administered multiple doses of DS107G capsules (once daily for 28 days) in healthy subjects.
Subjects were randomly assigned in a 3:1 ratio of DG107G to placebo by block randomization. Single dose part one of the study comprised three cohorts of eight subjects each, with the addition of Cohort four based on evaluation of the safety data of Cohort three by the Safety Monitoring Committee (SMC). A single oral dose of DS107G or matching placebo was administered to fasted subjects in Cohorts one to three (500, 1000, and 2000 mg, respectively) in parallel; subjects in Cohort four were administered a dose of 4000 mg following completion of Cohort three. Subjects in Cohort two received 1000 mg or matching placebo in the fed state at ≥14 days after the first dose.
Safety assessments were monitored throughout the study.
In Part one of the study, subjects in Cohorts one to three were administered a single dose of study drug (either 500-, 1000-, or 2000-mg as 500-mg DS107G capsules or matching placebo capsules) in parallel on study Day 1 after at least an 8-hour fast, according to Table 20. Cohort 4 was initiated following the review of safety data from Cohort 3 by the SMC.

Data set [4] concerns healthy male and female subjects. As to the kind of experiment: Phase 1 study safety and tolerability (single and multiple dose). The following applies: for Tolerability: healthy volunteers.
Procedure: Screening procedures were conducted for both parts one and two before the start of the study on Day −1 (Baseline) by evaluating the safety assessments.
Subjects were monitored throughout their confinement at the Phase 1 unit for adverse reactions to the study drug and/or procedures.
Safety analyses were performed on the safety population tabulated by treatment arm, cohort, and visit. All safety data were characterized by descriptive statistical tools. […] Evaluation of safety assessments was performed in a descriptive manner. Continuous variables were characterized by their mean, standard deviation (SD), median, minimum and maximum values; discrete variables were characterized by their absolute (frequency) and relative (percentage) distribution.

For `CCCCC/C=C\C/C=C\C/C=C\CCCCCCC(=O)O` [DGLA, Dihomo gamma linolenic acid], the “Drug related Serious Adverse Events” value in data set [1] is given as “no drug related Serious Adverse Events”. The Tolerability entry in data set [1] is given as “very well tolerated”; in data set [4] (2000- or 4000-mg once daily for 28 consecutive days), “tolerated well”; in data set [4] (single dose 500, 1000, 2000 or 4000 mg), “well tolerated”. In addition, the “Patients classified as Responders” value in data set [2] (African America patients) stood at 56%; in data set [2] (Caucasian patients), 7%. In addition, the “Response rate in subjects having low baseline eosinophil counts” value in data set [2] (in vivo) was “higher response rate”. Also, the “Linearity of elimination half-life or clearance, free or total DGLA” value in data set [3] (human) is on record as “no evidence of nonlinear pharmacokinetics”. The “Mean baseline-corrected Cmax and AUC0-24 for free and total DGLA versus dose” value in data set [3] was “increased in a linear manner”. The Deaths entry in data set [4] (multi-dose study) is “no deaths”. Besides, the “Severe TEAEs” value in data set [4] (multiple dose) is “no severe TEAEs”. The “Total number of TEAEs among active-treated subjects” value in data set [4] (multiple dose) worked out at 52. In addition, the “Proportion of subjects reporting diarrhea” value worked out at 50% in data set [4] (multiple dose, 2000-mg group (3/6)) and 66.7% in data set [4] (multiple dose, 4000-mg group (4/6)). In data set [4] (multiple dose, 4000-mg treatment group (10 events among 4/6)), this molecule registered a Subjects reporting nausea of 66.7%. Further, the “Incidence of TEAEs among active-treated subjects” value in data set [4] (multiple dose, 11/12 subjects) turned out to be 91.73%. Moreover, the “Incidence of diarrhea (loose stool), active-treated subjects” value in data set [4] (single dose, 5/24 subjects) turned out to be 20.8%.
